Data from patent publication US20230126204A1, “[1,3]DIAZINO[5,4-d]PYRIMIDINES AS HER2 INHIBITORS” (Boehringer Ingelheim International GmbH, priority 2020, published 2023).
Read-outs that look alike come from different tables or passages of the source.

Key:
Format in all cases: cell-based
EGFR wild type (WT) = target: T1, EGFR wild type (WT) (Homo sapiens, UniProt P00533); test: pEGFR assay (AlphaScreen Surefire, HEK cells); settings: HEK cells expressing EGFR WT, phosphorylation at Tyr1068, 4 h
T1 construct: expressed in transfected cells; host or cells: human HEK cells (ATCC CRL-1573), retroviral transduction, puromycin selection
T1 sequence (P00533 25-1210): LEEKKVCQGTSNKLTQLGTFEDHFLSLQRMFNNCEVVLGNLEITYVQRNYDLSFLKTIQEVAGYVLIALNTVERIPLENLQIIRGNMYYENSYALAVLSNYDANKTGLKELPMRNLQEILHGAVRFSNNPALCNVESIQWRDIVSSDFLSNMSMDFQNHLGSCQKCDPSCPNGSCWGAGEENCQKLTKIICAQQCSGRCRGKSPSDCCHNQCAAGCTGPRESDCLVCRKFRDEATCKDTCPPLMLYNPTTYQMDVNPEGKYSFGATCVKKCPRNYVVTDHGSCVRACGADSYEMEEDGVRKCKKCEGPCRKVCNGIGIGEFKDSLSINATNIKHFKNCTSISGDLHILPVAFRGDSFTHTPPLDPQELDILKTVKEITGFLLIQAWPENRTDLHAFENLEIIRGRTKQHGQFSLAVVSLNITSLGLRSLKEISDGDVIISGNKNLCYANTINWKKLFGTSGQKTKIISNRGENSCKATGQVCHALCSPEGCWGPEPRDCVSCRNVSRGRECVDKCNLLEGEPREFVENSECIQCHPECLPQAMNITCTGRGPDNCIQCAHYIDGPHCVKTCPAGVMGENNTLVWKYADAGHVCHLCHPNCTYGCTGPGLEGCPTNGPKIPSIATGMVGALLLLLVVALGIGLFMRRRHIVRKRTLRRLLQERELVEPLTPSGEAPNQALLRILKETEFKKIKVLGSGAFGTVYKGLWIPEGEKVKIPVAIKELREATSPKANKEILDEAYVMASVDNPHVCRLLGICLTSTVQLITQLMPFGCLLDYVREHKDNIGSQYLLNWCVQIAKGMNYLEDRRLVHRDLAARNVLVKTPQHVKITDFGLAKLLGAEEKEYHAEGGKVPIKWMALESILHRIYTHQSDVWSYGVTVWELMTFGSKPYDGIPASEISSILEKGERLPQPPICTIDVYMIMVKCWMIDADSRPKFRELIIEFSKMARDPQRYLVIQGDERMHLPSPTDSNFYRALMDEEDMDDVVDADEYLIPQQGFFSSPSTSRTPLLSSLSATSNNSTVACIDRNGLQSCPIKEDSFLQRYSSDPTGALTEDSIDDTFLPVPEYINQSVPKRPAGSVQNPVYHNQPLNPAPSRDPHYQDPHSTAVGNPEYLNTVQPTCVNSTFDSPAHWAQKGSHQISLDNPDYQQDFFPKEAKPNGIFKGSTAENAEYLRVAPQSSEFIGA
Method: This assay quantifies the phosphorylation of EGFR at Tyr1068 and was used to measure the inhibitory effect of compounds on the transgenic EGFR wild type (WT) protein expressed in HEK cells.
Transduced cells were selected using puromycin. p-EGFR Tyr1068 was determined using the AlphaScreen Surefire pEGF Receptor (Tyr1068) Assay (PerkinElmer, TGRERS). For the assay, HEK EGFR WT cells were seeded in MEM medium with 10% FBS. […] Subsequently, 60.000 cells/well in 60 μL were added. Cells were incubated with compounds for 4 h at 37° C. […] The mixture was incubated at a temperature of 20-25° C. with shaking (700 rpm) for 20 min. After centrifugation, 4 μL of the lysate were transferred to Proxiplates. […] Plates were shaken for 1 min (1400 rpm) and incubated for 2 h at a temperature of 20-25° C. in the dark.
This cellular phospho-EGFR (pEGFR) compound dose-response assay quantifies the phosphorylation of EGFR at Tyr1068 in HEK cells expressing EGFR WT. The results of the assay are provided as IC50 values.

Ba/F3 cells HER2 WT = test: Ba/F3 proliferation assay HER2 WT; settings: Mus musculus, BaF3, 72 h, CellTiter-Glo
Method: (§1) Ba/F3 cell model generation and proliferation assays
(§2) Plasmids containing HER2 mutants and EGFR WT were obtained from GeneScript. To generate EGFR/HER2-dependent Ba/F3 models, Ba/F3 cells were transduced with retroviruses containing vectors that harbor EGFR WT, HER2 WT or HER2 mutants (YVMA). Platinum-E cells (Cell Biolabs) were used for retrovirus packaging. Retrovirus was added to Ba/F3 cells. To ensure infection, 4 μg/mL polybrene was added and cells were spinfected. Infection efficiency was confirmed by measuring GFP-positive cells using a cell analyzer. Cells with an infection efficiency of 10% to 20% were further cultivated and puromycin selection with 1 μg/mL was initiated. As a control, parental Ba/F3 cells were used to assess the selection status. Selection was considered successful when parental Ba/F3 cells cultures died. To evaluate the transforming potential of HER2 mutations, the growth medium was no longer supplemented with IL-3. Ba/F3 cells harboring the empty vector were used as a control. A switch from IL-3 to EGF was performed for Ba/F3 cells with the EGFR WT known for its dependency on EGF ligand. Approximately ten days before conducting the experiments, puromycin was left out. For proliferation assays (data in table 12 and 14), Ba/F3 cells were seeded into 96-well plates at 5×10^3 cells/100 μL in growth media. Compounds were added by using a HP D3000 Digital Dispenser. All treatments were performed in technical triplicates. Treated cells were incubated for 72 h at 37° C. with 5% CO2. CellTiter-Glo® Luminescent Cell Viability Assay (Promega) was performed and chemoluminescence was measured by using the multilabel Plate Reader VICTOR X4. The raw data were imported into and analyzed with the Boehringer Ingelheim proprietary software MegaLab (curve fitting based on the program PRISM, GraphPad Inc.).

[1] = test system: EGFR WT dependent A431 cells; test: Tumor cell proliferation assay A431 (EGFR WT dependent); settings: Homo sapiens, A-431, 72 h, CellTiter-Glo, read-out: GI50 A431 EGFR wt amp.
Method: (§3) For proliferation assays, NCI-H2170 (HER2 wild type), NCI-H2170 HER2 YVMA and EGFR WT dependent A431 cells were used. NCI-H2170 HER2 YVMA or NCI-H2170 cells were seeded into 96-well plates at 750 cells/60 μL in growth media (RPMI ATCC+10% FBS, +Penicillin/Streptomycin). […] Compounds were added by using a HP D3000 Digital Dispenser one day after plating the cells. All treatments were performed in technical triplicates. Treated cells were incubated for 72 h at 37° C. with 5% CO2. CellTiter-Glo® Luminescent Cell Viability Assay (Promega) was performed and chemoluminescence was measured by using the multilabel Plate Reader VICTOR X4. The raw data were imported into and analyzed with the Boehringer Ingelheim proprietary software MegaLab (curve fitting based on the program PRISM, GraphPad Inc.).

[2] = test system: NCI-H2170 HER2 YVMA cells; test: Tumor cell proliferation assay NCI-H2170 HER2 YVMA; settings: Homo sapiens, 72 h, CellTiter-Glo, read-out: GI50 NCI H-2170 HER2 YVMA
From the text: HER2 YVMA tumor cell line model generation and proliferation assays
Homology-directed genome engineering was employed to insert a 12 nucleotide sequence encoding YVMA into Exon 20 of the genomic HER2 locus in NCI-H2170 cells. […] The DNA template containing the HER2 exon 20 YVMA insertion variant was obtained from GenScript. PCR followed by Sanger sequencing was used to confirm the presence of the 12-nucleotide insertion in HER2 Exon 20 resulting in the YVMA amino acid duplication.
as §3

[3] = test system: NCI-H2170 (HER2 wild type) cells; test: Tumor cell proliferation assay NCI-H2170 (HER2 wild type); settings: Homo sapiens, 72 h, CellTiter-Glo, read-out: GI50 NCI H-2170 HER2 wt amp.
Method: as §3

HER2 YVMA = target: T2, HER2 YVMA (Homo sapiens, UniProt P04626, INS775YVMA); test: pHER2 (ERBB2) YVMA assay (AlphaScreen Surefire, HEK cells); settings: HEK cells expressing HER2 YVMA, phosphorylation at Tyr1221/1222, 4 h
T2 construct: expressed in transfected cells; host or cells: human HEK cells, retroviral transduction, puromycin selection, doxycycline-inducible expression
T2 sequence (P04626 with tags, fused parts or gaps INS775YVMA): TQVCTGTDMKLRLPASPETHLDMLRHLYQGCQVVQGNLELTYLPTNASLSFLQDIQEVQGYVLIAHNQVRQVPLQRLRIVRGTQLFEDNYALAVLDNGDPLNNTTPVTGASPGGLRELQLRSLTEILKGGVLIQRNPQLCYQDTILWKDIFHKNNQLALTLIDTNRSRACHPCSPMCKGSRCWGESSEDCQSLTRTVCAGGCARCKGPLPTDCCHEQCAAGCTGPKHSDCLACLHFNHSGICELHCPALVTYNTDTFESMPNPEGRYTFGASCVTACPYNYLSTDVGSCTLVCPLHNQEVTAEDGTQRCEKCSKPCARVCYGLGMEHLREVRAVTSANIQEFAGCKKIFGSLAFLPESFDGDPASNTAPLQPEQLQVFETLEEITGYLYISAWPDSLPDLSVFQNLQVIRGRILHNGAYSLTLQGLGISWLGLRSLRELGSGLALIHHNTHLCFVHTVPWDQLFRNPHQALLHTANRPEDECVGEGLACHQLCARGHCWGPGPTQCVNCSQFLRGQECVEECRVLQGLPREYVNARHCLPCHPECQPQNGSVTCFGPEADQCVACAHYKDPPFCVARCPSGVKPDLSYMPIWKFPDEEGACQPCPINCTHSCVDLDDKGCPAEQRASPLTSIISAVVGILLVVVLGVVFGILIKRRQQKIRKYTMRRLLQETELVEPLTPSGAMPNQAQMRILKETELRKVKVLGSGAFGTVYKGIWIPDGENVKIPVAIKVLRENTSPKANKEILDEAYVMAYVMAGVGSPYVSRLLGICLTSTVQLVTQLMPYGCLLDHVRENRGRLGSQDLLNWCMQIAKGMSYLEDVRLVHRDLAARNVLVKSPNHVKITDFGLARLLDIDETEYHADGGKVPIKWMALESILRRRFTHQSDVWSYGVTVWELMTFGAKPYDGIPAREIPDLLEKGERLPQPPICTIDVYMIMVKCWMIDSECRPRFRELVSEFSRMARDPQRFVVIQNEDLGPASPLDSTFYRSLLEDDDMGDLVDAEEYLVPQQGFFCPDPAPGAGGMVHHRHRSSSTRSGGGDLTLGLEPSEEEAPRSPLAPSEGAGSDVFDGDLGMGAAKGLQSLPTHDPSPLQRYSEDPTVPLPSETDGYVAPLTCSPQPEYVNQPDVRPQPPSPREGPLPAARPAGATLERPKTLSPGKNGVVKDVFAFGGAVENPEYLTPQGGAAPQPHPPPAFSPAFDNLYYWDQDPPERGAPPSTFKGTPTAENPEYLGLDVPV
Method: For the assay, HEK HER2 YVMA cells were seeded in MEM medium with 10% FBS. 4 hours prior to compound addition, HER2 YVMA expression was induced using 1 μg/ml Doxycycline. […] Subsequently, 60.000 cells/well in 60 μL were added. Cells were incubated with compounds for 4 h at 37° C. […] The mixture was incubated at a temperature of 20-25° C. with shaking (700 rpm) for 20 min. After centrifugation, 4 μL of the lysate were transferred to Proxiplates. […] Plates were shaken for 1 min (1400 rpm) and incubated for 2 h at a temperature of 20-25° C. in the dark.
The results of the assay are provided as IC50 values.

[4] = test system: Ba/F3 cells HER2 mutants (YVMA); test: Ba/F3 proliferation assay HER2 YVMA; settings: Mus musculus, BaF3, 72 h, CellTiter-Glo
Method: as §1, §2

Ba/F3 cells EGFR WT = test: Ba/F3 proliferation assay EGFR WT (EGF dependent); settings: Mus musculus, CellTiter-Glo, read-out: GI50 BAF3 EGF dep.
Method: as §1, §2

[5] = BaF3, EGF instead of IL-3, 72 h
[6] = BaF3, prior art compounds, EGF instead of IL-3, 72 h

Row | IC50 (EGFR wild type (WT)) [µM] | GI50 (Ba/F3 cells HER2 WT) [µM] | GI50 [1] [µM] | IC50 (HER2 YVMA) [µM] | GI50 [4] [µM] | GI50 (Ba/F3 cells EGFR WT; [5]) [µM] | GI50 ([1]; prior art compounds) [µM] | GI50 ([4]; prior art compounds) [µM] | GI50 (Ba/F3 cells HER2 WT; prior art compounds) [µM] | GI50 (Ba/F3 cells EGFR WT; [6]) [µM] | Compound | GI50 [2] [µM] | GI50 [3] [µM] | GI50 ([2]; prior art compounds) [µM] | GI50 ([3]; prior art compounds) [µM]
1 | 0.265 | 0.001 | > 5 | 0.01 | 0.018 | 2.4 | – | – | – | – | C=CC(=O)N1CCN(c2ncc3ncnc(Nc4ccc(Oc5ccc6c(c5)ncn6C)c(C)c4)c3n2)CC1 [Compound I-1] | 0.082 | 0.016 | – | –
2 | 0.38 | 0.001 | 4.66 | 0.01 | 0.009 | 1.38 | – | – | – | – | C#Cc1cc(Nc2ncnc3cnc(N4CCN(C(=O)C=C)CC4)nc23)ccc1Oc1ccc2c(c1)ncn2C [Compound I-2] | 0.05 | 0.009 | – | –
3 | 1.17 | 0.001 | > 5 | 0.017 | 0.012 | 2.8 | – | – | – | – | C=CC(=O)N1CCN(c2ncc3ncnc(Nc4ccc(Oc5ccc6c(c5)ncn6C)c(OC)c4)c3n2)CC1 [Compound I-3] | 0.074 | 0.018 | – | –
4 | 0.221 | 0.002 | > 5 | 0.01 | 0.017 | 0.904 | – | – | – | – | C=CC(=O)N1CCN(c2ncc3ncnc(Nc4ccc(Oc5ccc6c(c5)ncn6C)c(Cl)c4)c3n2)CC1 [Compound I-4] | 0.081 | 0.011 | – | –
5 | 0.232 | 0.001 | 2.88 | 0.015 | 0.02 | 0.572 | – | – | – | – | C=CC(=O)N1CCN(c2ncc3ncnc(Nc4ccc(Oc5ccc6c(c5)ncn6C)c(Br)c4)c3n2)CC1 [Compound I-5] | 0.076 | 0.016 | – | –
6 | 1.11 | 0.003 | 2.64 | 0.019 | 0.027 | 1.84 | – | – | – | – | C=CC(=O)N1CCN(c2ncc3ncnc(Nc4ccc(Oc5ccc6c(c5)ncn6C)c(F)c4)c3n2)CC1 [Compound I-6] | 0.146 | 0.026 | – | –
7 | 0.996 | 0.006 | > 5 | 0.03 | 0.037 | 1.11 | – | – | – | – | C=CC(=O)N1CCN(c2ncc3ncnc(Nc4cc(Cl)c(Oc5ccc6c(c5)ncn6C)c(Cl)c4)c3n2)CC1 [Compound I-7] | 0.118 | 0.025 | – | –
8 | 0.355 | 0.003 | 3.93 | 0.022 | 0.031 | 1.04 | – | – | – | – | C=CC(=O)N1CCN(c2ncc3ncnc(Nc4cc(F)c(Oc5ccc6c(c5)ncn6C)c(Cl)c4)c3n2)CC1 [Compound I-8] | 0.172 | 0.021 | – | –
9 | 0.485 | 0.005 | 2.51 | 0.034 | 0.023 | 1.12 | – | – | – | – | C=CC(=O)N1CCN(c2ncc3ncnc(Nc4cc(Br)c(Oc5ccc6c(c5)ncn6C)c(Br)c4)c3n2)CC1 [Compound I-9] | 0.203 | 0.046 | – | –
10 | 1.77 | 0.008 | > 5 | 0.08 | 0.064 | 1.63 | – | – | – | – | C=CC(=O)N1CCN(c2ncc3ncnc(Nc4cc(Br)c(Oc5ccc6c(c5)ncn6C)cc4Cl)c3n2)CC1 [Compound I-10] | 0.216 | 0.052 | – | –
11 | 1.17 | 0.003 | > 5 | 0.025 | 0.04 | 0.644 | – | – | – | – | C=CC(=O)N1CCN(c2ncc3ncnc(Nc4cc(F)c(Oc5ccc6c(c5)ncn6C)c(F)c4)c3n2)CC1 [Compound I-11] | 0.339 | 0.047 | – | –

Continued, compound first:

Row | Compound | IC50 (EGFR wild type (WT)) [µM] | GI50 (Ba/F3 cells HER2 WT) [µM] | GI50 [1] [µM] | IC50 (HER2 YVMA) [µM] | GI50 [4] [µM] | GI50 (Ba/F3 cells EGFR WT; [5]) [µM] | GI50 ([1]; prior art compounds) [µM] | GI50 ([4]; prior art compounds) [µM] | GI50 (Ba/F3 cells HER2 WT; prior art compounds) [µM] | GI50 (Ba/F3 cells EGFR WT; [6]) [µM] | GI50 [2] [µM] | GI50 [3] [µM] | GI50 ([2]; prior art compounds) [µM] | GI50 ([3]; prior art compounds) [µM]
12 | C=CC(=O)Nc1ccc2ncnc(Nc3ccc(Oc4ccc5c(c4)ncn5C)c(C)c3)c2c1 [WO 2007/059257 Ex.185, reference compound] | – | – | – | – | – | – | > 5 | 0.06 | – | – | – | – | – | –
13 | C=CC(=O)Nc1cccc(-n2c(=O)c(Oc3ccc(F)cc3F)cc3cnc(Nc4cnn(C)c4)nc32)c1 [WO 2019/046775 Comp.2, reference compound] | – | – | – | – | – | – | 0.016 | 0.014 | 0.003 | 0.013 | – | – | 0.034 | 0.022
14 | C=CC(=O)Nc1ccc2ncnc(Nc3ccc(OCc4cccc(F)c4)c(Cl)c3)c2c1 [allitinib, reference compound] | – | – | – | – | – | – | – | 0.017 | – | 0.031 | – | – | – | 0.036
15 | C=CC(=O)N1CCC[C@@H](n2nc(-c3ccc(Oc4ccccc4)cc3)c3c(N)ncnc32)C1 [ibrutinib, reference compound] | – | – | – | – | – | – | – | 0.044 | – | 0.07 | – | – | – | 0.016
16 | CCOc1cc2ncc(C#N)c(Nc3ccc(OCc4ccccn4)c(Cl)c3)c2cc1NC(=O)/C=C/CN(C)C [neratinib, reference compound] | – | – | – | – | – | – | 0.055 | 0.005 | – | 0.014 | – | – | 0.037 | 0.003
17 | C=CC(=O)N1CCC(Oc2cc3c(Nc4ccc(Cl)c(Cl)c4F)ncnc3cc2OC)CC1 [poziotinib, reference compound] | – | – | – | – | – | – | 0.001 | 0.002 | 0.001 | 0.001 | – | – | 0.005 | 0.001
18 | Cc1cc(Nc2ncnc3ccc(NC4=NC(C)(C)CO4)cc23)ccc1Oc1ccn2ncnc2c1 [tucatinib, reference compound] | – | – | – | – | – | – | – | – | 0.01 | – | – | – | – | 0.058
